Laboratory results: patent publication US4698339A, “Carbapenems, their production and use” (Takeda Chemical Industries, Ltd., priority 1983, dated 1987)
Values after ≈ are worked out from the molar mass of the structure shown.

How the values were obtained:
Escherichia coli 0-111 = test: MIC by agar dilution method, Escherichia coli 0-111; format: cell-based; conditions: 0111, Trypticase soy agar, about 10^8 CFU/ml, 18 hours at 37° C., read-out: MIC (minimal inhibitory concentration)
Procedure: (§1) Several examples of the compound (I) as obtained in Examples were tested for MIC (mcg/ml) by the following method.
(§2) The MIC of each test compound was determined by the agar dilution method. Thus, 1.0 ml of each aqueous serial dilution of the test compound was poured into a petri dish and then […] of Trypticase soy agar was poured into the dish followed by intimate mixing. The mixed agar plate was smeared with the suspension of a test organism (about 10^8 CFU/ml).
(2) Escherichia coli 0-111

Klebsiella pneumoniae DT = test: MIC by agar dilution method, Klebsiella pneumoniae DT; format: cell-based; conditions: Trypticase soy agar, about 10^8 CFU/ml, 18 hours at 37° C., read-out: MIC (minimal inhibitory concentration)
Procedure: as §1, §2
(4) Klebsiella pneumoniae DT

[1] = stability against a mouse kidney homogenate; format: in vitro ADME; conditions: 0.05M phosphate buffer (pH 6.9), 30° C., test compound solution 1 mg/ml mixed 1:1, read-out: Half life (T1/2)
Procedure: Several examples of the objective compound (I) as obtained in Examples were tested for stability against a mouse Kidney homogenate by the following method.
A kidney homogenate was prepared by grinding down 50 g of the mouse kidney in 200 ml of cooled 0.05M phosphate buffer (pH 6.9) and stored at -20° C. A 200 μl portion of this mouse kidney homogenate and 200 μl of an aqueous solution of the test compound (1 mg/ml) were intimately mixed and kept at 30° C. At 10-minute intervals, a 25 μl portion of the mixture was taken and added to 25 μl of ice bath-cooled methanol to thereby terminate the reaction between renal enzymes and the test compound. The amount of the remaining test compound was determined by measuring the inhibitory action against β-lactamaseproduced by Proteus vulgaris GN4413 or Enterobacter cloacae TN1282 by the method described in Journal of Antibiotics, 34, 212-217 (1981).

[2] = test system: Citrobacter freundii IFO 12681; test: MIC by agar dilution method, Citrobacter freundii IFO 12681; format: cell-based; conditions: IFO12681, Trypticase soy agar, about 10^8 CFU/ml, 18 hours at 37° C., read-out: MIC (minimal inhibitory concentration)
Procedure: as §1, §2
(3) Citrobacter freundii IFO 12681

[3] = test system: Staphylococcus aureus FDA 209P; test: MIC by agar dilution method, Staphylococcus aureus FDA 209P; format: cell-based; conditions: FDA209P, Trypticase soy agar, about 10^8 CFU/ml, 18 hours at 37° C., read-out: MIC (minimal inhibitory concentration)
Procedure: as §1, §2
(1) Staphylococcus aureus FDA 209P

SMILES	MIC (Escherichia coli 0-111) [µg/mL]	MIC (Klebsiella pneumoniae DT) [µg/mL]	half-life [1] [min]	MIC [2] [µg/mL]	MIC [3] [µg/mL]
O=C(O)C1=C(Sc2ncccn2)C[C@@H]2[C@H](C3(O)CCS(=O)(=O)C3)C(=O)N12 (stereo partly drawn) [2 (b), sodium 5,6-cis-3-(2-pyrimidinylthio)-6-(1-hydroxy-3-thiacyclopentyl-3,3-dioxido)-7-oxo-1-azabicyclo[3.2.0]hept-2-ene-2-carboxylate]	3.13	6.25	> 120	6.25	0.78
CC(=O)NCCSC1=C(C(=O)O)N2C(=O)[C@@H](C(O)CS(C)(=O)=O)[C@H]2C1 (stereo partly drawn) [12 (b), sodium 5,6-cis-3-(2-acetamidoethylthio)-6-(1-hydroxy-2-methylsulfonylethyl)-7-oxo-1-azabicyclo[3.2.0]hept-2-ene-2-carboxylate]	0.39	1.56	> 120	3.13	1.56
CC(=O)N/C=C/SC1=C(C(=O)O)N2C(=O)[C@@H](C3(O)CCS(=O)(=O)C3)[C@H]2C1 (stereo partly drawn) [13 (b), sodium 5,6-cis-3-[(E)-2-acetamidovinylthio]-6-(1-hydroxy-3-thiacyclopentyl-3,3-dioxido)-7-oxo-1-azabicyclo[3.2.0]hept-2-ene-2-carboxylate]	0.39	0.78	> 120	1.56	1.56
CCS(=O)(=O)CC(O)C1C(=O)N2C(C(=O)O)=C(SCCNC(C)=O)CC12 (stereo not drawn) [15 (b)]	0.2 (≈ 0.492 µM)	3.13 (≈ 7.7 µM)	> 120	3.13 (≈ 7.7 µM)	6.25 (≈ 15.4 µM)
CC(=O)NCCSC1=C(C(=O)O)N2C(=O)C(C(O)CS(=O)(=O)c3ccccc3)C2C1 (stereo not drawn) [20 (b)]	0.39 (≈ 0.858 µM)	3.13 (≈ 6.89 µM)	> 120	1.56 (≈ 3.43 µM)	1.59 (≈ 3.5 µM)
CC(=O)NCCSC1=C(C(=O)O)N2C(=O)[C@@H](C3(O)CCS(=O)(=O)C3)[C@H]2C1 (stereo partly drawn) [Example 1 (c), Sodium 5,6-cis-3-(2-acetamidoethylthio)-6-(1-hydroxy-3-thiacyclopentyl-3,3-dioxido)-7-oxo-1-azabicyclo-[3.2.0]hept-2-ene-2-carboxylate]	0.39	3.13	> 120	3.13	3.13
